Results on one compound are retold here after patent publication US5723463A, “Pyrido [3,2-E]pyrazinones with anti-asthmatic action and processes for their manufacture” (ASTA Medica Aktiengesellschaft, priority 1995, dated 1998).

As a reminder, the IC50 is the concentration at which inhibition is half-maximal. Read a high IC50 as weaker potency.

In assay [1] the test system is PDE IV. Briefly: PDE IV inhibition (in vitro), cAMP-specific PDE of cytosol of human polymorphonuclear leucocytes. It counts as biochemical. The settings on record: substrate 0.5 μM cAMP, motapizon 1 μM. The procedure:
(§1) Phosphodiesterase (PDE) activity is determined with a few modifications (Bauer, A. C.; Schwabe, U., An improved assay of cyclic 3',5'-nucleotide phosphodiesterase with QAE Sephadex A-25. Naunyn-Schmiedeberg's Arch. Pharmacol. 311 193-198 (1980)) after the method described by Thompson et al. (Thompson, W. J.; Appleman, M. M., Assay of cyclic nucleotide phosphodiesterase and resolution of multiple molecular forms of the enzyme. Adv. Cycl. Nucl. Res. 10 69-92 (1979)) The reaction mixture contains 40 mM Tris-HCl (pH 7.4), 5 mM MgCl2, 0.5 μM cAMP or cGMP, [^3 H]cAMP or [^3 H]cGMP (approx. 20,000 cpm/test) and the other components needed to record the individual isoenzymes (see below). The final volume is 200 μl. Test substances are prepared as stock solutions in DMSO. The DMSO concentration in the reaction mixture is the same or less than 1% v/v. The PDE activity is not influenced at this DMSO concentration. […] The radioactivity of the individual fractions is recorded using scintigraphy.
The PDE IV (cAMP-specific) activity is determined after the method described by Schudt et al. (Schudt C.; Winter S.; Forderkurz S.; Hatzelmann A.; Ullrich V., Influence of selective phosphodiesterase inhibitors on human neutrophil functions and levels of cAMP and Ca. Naunyn-Schmiedeberg's Arch. Pharmacol. 344, 682-690 (1991)) describe a method in the cytosol of human polymorpho-nuclear leucocytes. […]

Assay [2] has as its target T1, PDE V (Homo sapiens, UniProt O76074).
T1 construct: PDE V (cGMP-specific) is isolated from human blood platelets; from tissue; host or cells: human blood platelets
The experiment in a line: PDE V inhibition (in vitro), cGMP-specific PDE isolated from human blood platelets. In kind it is biochemical. The note with it: substrate 0.5 μM cGMP. The procedure:
as §1, with “concentration. After pre-incubation for 5 minutes at 37° C. the reaction is started by adding the substrate (cAMP or cGMP). The samples are incubated for a further 15 minutes at 37° C. The reaction is stopped by adding 50 μl 0.2N HCl. The samples remain in the ice for a further 10 minutes.” for “concentration.”, “scintigraphy. […]” for “scintigraphy.”

Assay [3] concerns Histamine precontracted trachea. Briefly: Influence on the trachea precontracted using histamine. The note with it: Cavia porcellus, guinea pig trachea. Here is the method: Guinea pigs are exsanguinated under narcosis. The trachea is then prepared free from adjacent tissue and cut into five equal parts (at least 3 trachea-rings wide). The trachea parts are suspended in a bath filled with a nutrient solution (Krebs-Henseleit). The strength of contraction of the trachea can be measured using force transducers. After suspension, a 15-minute acclimatisation period is allowed. The trachea is then totally relaxed using isoprenaline (1×10^-7 mol/l). The bath vessel is then rinsed. A contraction maximum is triggered using metacholine (10×10^-5 mol/l). The bath vessel is then rinsed again. Histamine ([…]) is then added. The contraction maximum is reached after approx. 10 minutes. The test substance is then added to the bath in increasing concentration and the contraction-triggering effect determined in percent to an untreated control. The mean contraction-triggering concentration is calculated using regression apparatuses. To check the function of the organs, isoprenaline (1×10^-5 mol/l) is then added to the bath to see whether the organs are still able to relax.

Assay [4] has as its system Ovalbumin-induced eosinophilia. Briefly: Asthmatic late phase reaction: ovalbumin-induced eosinophilia in guinea pigs (BAL). It counts as in vivo, guinea pig. The settings on record: 1 mg/kg i.p., 2 hours before allergen challenge, BAL 24 hours after. The procedure:
Male guinea pigs (250-300 g, Pirbright white, Charles River Wiga) are actively sensitised by s.c. injection of ovalbumin (10 μg+100 mg aluminium hydroxide) and boosted 2 weeks later. One week after the boosting (10 μg+100 mg aluminium hydroxide) the animals are exposed of an aerosol of nebulised 0.5 % ovalbumin solution for 20 seconds. 24 hours later, the bronchoalveolar lavage (BAL) is carried out using 2×5 ml sodium chloride solution on animals sacrificed with an overdose of pentobarbital. The lavage liquid is pooled and centrifuged for 10 minutes. The cell pellet is suspended in 1 ml physiological sodium chloride solution and the eosinophils are counted microscopically in a counting chamber using a Becton-Dickinson eosinophil kit. The eosinophils are counted for each guinea pig. The mean value is calculated for each group. The inhibition of the eosinophils for the group treated with substance is obtained using the formula:
(A-C)-(B-C)/(A-C)×100=% inhibition
A=Eosinophils in the untreated control group challenged with ovalbumin
B=Eosinophils in the group treated with the substance and challenged with ovalbumin
C=Eosinophils in the control group not challenged with ovalbumin
The substance was applied 2 hours before allergen challenge p,o, (in 1% methocel) or i.p. (in 0.5% methocel). The control groups receive 1% methocel p.o. or 0.5% methocel i.p. 2 hours before allergen challenge.

SMILES strings stand for the structures.

As for `CCCn1c(=O)c2c(C)nc(CC)n2c2nc(OC)ccc21` [embodiment 1, 1-ethyl-8-methoxy-3-methyl-5-propyloimidazo[1,5-a]pyrido[3,2-e]-pyrazinone], the IC50 in assay [1] came out at 0.1 µM; in assay [2], 0.095 µM; in assay [3], 0.7 µM. For the same compound, the “Ovalbumin-induced eosinophilia: % inhibition of eosinophils” value in assay [4] was determined as 74%.
